From patent US7803801B2, “Aminopyridine compounds having Syk inhibitory activity” (Japan Tobacco, Inc., priority 2005, dated 2010)
Structures can show the parent of a compound that is named as a salt. Where two headings read alike, the source gives them in different places.

Assays:
[1] = target: GST-Syk Full Protein (human) (Homo sapiens, UniProt P43405); assay: Syk kinase inhibition test (HTRF method); format: biochemical
How it was run: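 Human GST-Syk full-length (6.4 nM) phosphorylated biotin-EDPDYEWPSA-NH2 (250 nM) with 100 μM ATP in HEPES pH 7.0/MgCl2 buffer, 2% DMSO, 30 min at room temperature. EDTA stop, then HTRF detection (streptavidin-XL665, Eu anti-phosphotyrosine) after 1 h; 665/620 ratio read.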

[2] = system: cultured human mast cells; assay: Degranulation inhibition test using cultured human mast cells (IgE cross-linking, β-Hexosaminidase release); format: cell-based; conditions: Mast cell, cultured human mast cells, read-out: human degranulation ave. IC50
Protocol: Degranulation Inhibition Test Using Cultured Human Mast Cells
(1) Separation of Hematopoietic Stem Cells;
After 10 to 60 mL of umbilical cord blood collected with heparin was diluted with an equivalent amount of buffer (0.5% BSA, 2 mM EDTA/PBS-), it was superposed on Ficoll-Paque (Amersham Pharmacia Biotech) (Ficoll/Blood (1:2)) and mononuclear leukocyte fraction was collected by centrifuging it at 400 G (1350 rpm) 4° C. for 30 minutes. After centrifugal washing (1500 rpm, 5 min, 4° C.×3) with buffer, the number of cells was counted and 0.1 mL of CD34 Progenitor Cell Isolation Kit (Miltenyi Biotec), Reagent A1 (Fc blocking) was added for 1×10^8 cells. After agitation, 0.1 mL of Reagent A2 (CD34 antibody-hapten) was added (final volume 0.5 mL/1×10^8 cells) and incubated at 9° C. for further 15 minutes after agitation. After centrifugal washing (1500 rpm, 5 min, 4° C.×3), it was resuspeded in a buffer (0.4 mL) and 0.1 mL of Reagent B (anti hapten antibody-microbeads) was added and agitated (final volume 0.5 mL/1×10^8 cells) and incubated at 9° C. for further 15 minutes. After centrifugal washing (1500 rpm, 5 min, 4° C.×2), it was resuspeded in a buffer (0.5 mL) and loaded on CS column (Miltenyi Biotec) set in MACS (MAgnetic Cell Sorting system; Miltenyi Biotec, Daiichi Pure Chemicals) and washed with 30 mL of buffer to remove CD34^− cells. The column was separated from MACS and eluted with 30 mL of buffer and CD34^+ cells bound to the column were collected and used as a hematopoietic stem cell population.
(2) Acquisition of Human Mast Cells by Long-Term Culturing of Hematopoietic Stem Cells;
The CD34^+ cells separated in (1) were resuspended in Iscove's Modified Dulbecco's Medium (IMDM, Gibco) containing human (rh)SCF (1 μg/mL, Peprotech), rhIL-6 (0.5 μg/mL, Peprotech), rhIL-3 (10 ng/mL, Peprotech), 1% Insulin-Transferrin (Gibco), 5×10^−5M 2-ME (Gibco), 0.1% BSA (Sigma) in a density of 1×10^6 cells/ml and disseminated on 24-well culture plate with a dose of 0.1 mL/well and 0.9 ml of IMDM (Methocult SF^BIT StemCell technology) containing 0.9% methyl cellulose was added and culturing was started. The above culture medium (excluding methyl cellulose) was added in a week and after that 100 μL/well of the above culture medium (further excluding IL-3) was added at an interval of every once a week so that cells were diluted to maintain 10^5 cells/mL/well order and cultured more than about 8 weeks and thereby human culture mast cells were obtained.
(3) Expression Enhancement of FcεRI and Inhibition Test IgE Cross-Linking Stimulating Degranulation;
rhIL-4 (final concentration 1 ng/mL, R & D) and Homo sapiens(h) IgE (final concentration 0.5 μg/mL, CHEMICON) were added to the obtained human culture mast cells, and they were incubated for 5 days to enhance the expression of FcεRI. After incubation, cells were collected and, after centrifugal washing (IMDM), they were disseminated on 96-well culture plate in 5×10^4 cells/80 μL/well.
10 μL of a compound 10-fold diluted with IMDM after dissolved in DMSO (DMSO final concentration 0.1%) was added and reacted at 37° C. for 10 minutes. Further, 10 μL of anti-hIgE Ab (CHEMICON) adjusted to 100 μg/mL (final concentration 10 μg/mL) was added and degranulation was caused by being stimulated at 37° C. for 30 minutes. After centrifugation, 50 μL/well of the supernatant was collected and stored at −40° C. untill the quantity of degranulation was measured. The measurement of quantity of degranulation was performed using enzymatic activity of β-Hexosaminidase contained in the granulates as an index. That is, an equivalent amount of p-nitrophenyl-N-acetyl-β-D-glucosaminide (1 mM) (containing 0.1% Triton X-100) which is a substrate of β-Hexosaminidase was added to 50 μL of the culture filtrate, and after reacted at 37° C. for 2 hours, the reaction was terminated by using 100 μL of Carbonate buffer (0.1M, pH 10). […]

[3] = Tables 1-x, compounds A, read-out: sykHTRF ave IC50
[4] = HTRF, 100 μM ATP, 30 min room temperature, average, read-out: sykHTRF ave IC50
[5] = anti-hIgE stimulation, β-Hexosaminidase index, average
[6] = Tables 2-x, thiophene compounds B, read-out: sykHTRK ave IC50
[7] = Tables 2-x, thiophene compounds B

SMILES	IC50 [1, 3]	IC50 ([2]; Tables 1-x, compounds A)	IC50 [1, 4]	IC50 [2, 5]	further results
CC(=O)N1CCN(c2ncc(-c3cccc(Nc4cc(Cl)ccn4)n3)s2)CC1 [Compound A-443, 1-(4-{5-[6-(4-chloropyridin-2-ylamino)pyridin-2-yl]thiazol-2-yl}piperazin-1-yl)ethanone]	< 100 nM	100 to 1000 nM			
C[C@H](O)c1ncc(-c2cccc(Nc3cc(C4(C)OCCO4)ccn3)n2)s1 [Compound A-335, (S)-1-(5-{6-[4-(2-methyl-[1,3]dioxolan-2-yl)pyridin-2-ylamino]pyridin-2-yl}thiazol-2-yl)ethanol]			< 100 nM	100 to 1000 nM	
Cc1ccnc(Nc2cccc(-c3cnc(CCC4CCN(C(=O)CO)CC4)s3)n2)c1 [Compound A-263, 2-hydroxy-1-[4-(2-{5-[6-(4-methylpyridin-2-ylamino)pyridin-2-yl]thiazol-2-yl}ethyl)piperidin-1-yl]ethanone]			< 100 nM	100 to 1000 nM	
CC(=O)N1CCC(N(CCO)c2ncc(-c3cccc(Nc4cc(C)ccn4)n3)s2)CC1 [Compound A-525, 1-[4-(N-(2-hydroxyethyl)-N-{5-[6-(4-methylpyridin-2-ylamino)pyridin-2-yl]thiazol-2-yl}amino)piperidin-1-yl]ethanone]	< 100 nM	100 to 1000 nM			
Cc1ccnc(Nc2cccc(-c3cnc([C@H]4CC[C@@H](C#N)CC4)s3)n2)c1 [Compound A-317, cis-4-{5-[6-(4-methylpyridin-2-ylamino)pyridin-2-yl]thiazol-2-yl}cyclohexanecarbonitrile]			< 100 nM	100 to 1000 nM	
Cc1ccnc(Nc2cccc(-c3cnc(N(C)Cc4ccc(C(=O)O)s4)s3)n2)c1 [Compound A-603, 5-[(N-methyl-N-{5-[6-(4-methylpyridin-2-ylamino)pyridin-2-yl]thiazol-2-yl}amino)methyl]thiophene-2-carboxylic acid]	< 100 nM	> 1000 nM			
Cc1ccnc(Nc2cccc(-c3cnc(N(C)C4CCN(C(=O)CO)CC4)s3)n2)c1 [Compound A-459, 2-hydroxy-1-[4-(N-methyl-N-{5-[6-(4-methylpyridin-2-ylamino)pyridin-2-yl]thiazol-2-yl}amino)piperidin-1-yl]ethanone]	< 100 nM	100 to 1000 nM			
CC(=O)N[C@H](c1ccc(OCc2ccccc2)cc1)c1ncc(-c2cccc(Nc3cc(C)ccn3)n2)s1 [Compound A-160]			100 to 1000 nM	> 1000 nM	
Cc1ccnc(Nc2cccc(-c3cnc(N4CC[C@@H](NC(=O)CO)C4)s3)n2)c1 [Compound A-475, 2-hydroxy-N—((R)-1-{5-[6-(4-methylpyridin-2-ylamino)pyridin-2-yl]thiazol-2-yl}pyrrolidin-3-yl)acetamide]	< 100 nM	100 to 1000 nM			
CC(=O)N[C@@H]1CCN(c2ncc(-c3cccc(Nc4cc(C)ccn4)n3)s2)C1 [Compound A-472, N—((R)-1-{5-[6-(4-methylpyridin-2-ylamino)pyridin-2-yl]thiazol-2-yl}pyrrolidin-3-yl)acetamide]	< 100 nM	100 to 1000 nM			
Cc1ccnc(Nc2cccc(-c3cnc([C@@H](N)Cc4ccc(NC(=O)OCc5ccccc5)cc4)s3)n2)c1 [Compound A-177]			100 to 1000 nM	> 1000 nM	
CC(=O)N(CCC(=O)O)Cc1ncc(-c2cccc(Nc3cc(C)ccn3)n2)s1 [Compound A-181]			100 to 1000 nM	> 1000 nM	
Cc1ccnc(Nc2cccc(-c3cnc(C(=O)NCC(C)(C)CO)s3)n2)c1 [Compound A-62]			100 to 1000 nM	> 1000 nM	
Cc1ccnc(Nc2cccc(-c3cnc(N(CC(=O)N(C)C)Cc4ccc(C(=O)O)cc4)s3)n2)c1 [Compound A-597, 4-[(N-dimethylcarbamoylmethyl-N-{5-[6-(4-methylpyridin-2-ylamino)pyridin-2-yl]thiazol-2-yl}amino)methyl]benzoic acid dihydrochloride]	< 100 nM	> 1000 nM			
Cc1ccnc(Nc2cccc(-c3cnc(CN4CCC(O)C4)s3)n2)c1 (stereo not drawn) [Compound A-380]	100 to 1000 nM	100 to 1000 nM			
Cc1ccnc(Nc2cccc(-c3cnc(C4CCCNC4)s3)n2)c1 (stereo not drawn) [Compound A-390]	100 to 1000 nM	100 to 1000 nM			
Cc1ccnc(Nc2cccc(-c3ccc(C(O)CCO)s3)n2)c1 (stereo not drawn) [Compound B-54]					IC50 [1, 6]: 100 to 1000 nM; IC50 [2, 7]: 100 to 1000 nM
Cc1ccnc(Nc2cccc(-c3cnc(CC(=O)N4C[C@@H](O)[C@@H](O)C4)s3)n2)c1 [Compound A-255]			100 to 1000 nM	100 to 1000 nM	
CC(=O)Nc1nc(C)c(-c2cccc(Nc3cc(C)ccn3)n2)s1 [Compound A-20, N-{4-methyl-5-[6-(4-methylpyridin-2-ylamino)pyridin-2-yl]thiazol-2-yl}acetamide]			< 100 nM	100 to 1000 nM	
CC(=O)c1csc(-c2cccc(Nc3cc(C)ccn3)n2)c1 [Compound B-68]					IC50 [1, 6]: 100 to 1000 nM; IC50 [2, 7]: > 1000 nM
Cc1ccnc(Nc2cccc(-c3cnc(C4CCC(=NO)CC4)s3)n2)c1 (stereo not drawn) [Compound A-74, 4-{5-[6-(4-methylpyridin-2-ylamino)pyridin-2-yl]thiazol-2-yl}cyclohexanone oxime]			< 100 nM	> 1000 nM	
Cc1ccnc(Nc2cccc(-c3cnc([C@H]4CC[C@H](C(=O)N[C@H](CO)Cc5cnc[nH]5)CC4)s3)n2)c1 [Compound A-304, N—[(S)-2-hydroxy-1-(3H-imidazol-4-ylmethyl)ethyl]-trans-4-{5-[6-(4-methylpyridin-2-ylamino)pyridin-2-yl]thiazol-2-yl}cyclohexanecarboxamide]			< 100 nM	> 1000 nM	
Cc1ccnc(Nc2cccc(-c3cnc(CNC[C@H]4CC[C@H](CO)CC4)s3)n2)c1 [Compound A-208]			100 to 1000 nM	> 1000 nM	
Cc1ccnc(Nc2cccc(-c3cnc(N(C)C4CCN(C(=O)c5ccc(O)cc5)CC4)s3)n2)c1 [Compound A-513, (4-hydroxyphenyl)-[4-(N-methyl-N-{5-[6-(4-methylpyridin-2-ylamino)pyridin-2-yl]thiazol-2-yl}amino)piperidin-1-yl]methanone]	< 100 nM	100 to 1000 nM			
COC(=O)N1CCN(c2ncc(-c3cccc(Nc4cc(C)ccn4)n3)s2)CC1 [Compound A-438, methyl 4-{5-[6-(4-methylpyridin-2-ylamino)pyridin-2-yl]thiazol-2-yl}piperazine-1-carboxylic acid methyl ester]	< 100 nM	100 to 1000 nM			
Cc1ccnc(Nc2cccc(-c3cnc(N4CCN(C=O)CC4)s3)n2)c1 [Compound A-410]	100 to 1000 nM	< 100 nM			
NC(=O)[C@@H]1CCCN1c1ncc(-c2cccc(Nc3cc(Cl)ccn3)n2)s1 [Compound A-542, (S)-1-{5-[6-(4-chloropyridin-2-ylamino)pyridin-2-yl]thiazol-2-yl}pyrrolidine-2-carboxamide]	< 100 nM	< 100 nM			
